Measurements from US7300939B2, “Substituted 1-propiolylpiperazine compounds, their preparation and use” (Gruenenthal GmbH, priority 2005, dated 2007).
pIC50: −log10 of the molar value. Where a name gives a salt, the structure may show the parent alone.

Legend:
rats = assay: Formalin test in rats; assay type: in vivo, rat
mGluR5 receptor [1] = biological target: T1, mGluR5 receptor (Sus scrofa, UniProt I3LUI7); assay: [3H]-MPEP binding in the mGluR5 receptor binding assay (pig brain homogenate); conditions: for mGluR5-receptor (% inhibition 10 μM) in pigs: pig brain homogenate, 5 nM [3H]-MPEP
T1 construct: from tissue; host or cells: pig brain halves without medulla, cerebellum and pons
T1 sequence (I3LUI7 19-1212): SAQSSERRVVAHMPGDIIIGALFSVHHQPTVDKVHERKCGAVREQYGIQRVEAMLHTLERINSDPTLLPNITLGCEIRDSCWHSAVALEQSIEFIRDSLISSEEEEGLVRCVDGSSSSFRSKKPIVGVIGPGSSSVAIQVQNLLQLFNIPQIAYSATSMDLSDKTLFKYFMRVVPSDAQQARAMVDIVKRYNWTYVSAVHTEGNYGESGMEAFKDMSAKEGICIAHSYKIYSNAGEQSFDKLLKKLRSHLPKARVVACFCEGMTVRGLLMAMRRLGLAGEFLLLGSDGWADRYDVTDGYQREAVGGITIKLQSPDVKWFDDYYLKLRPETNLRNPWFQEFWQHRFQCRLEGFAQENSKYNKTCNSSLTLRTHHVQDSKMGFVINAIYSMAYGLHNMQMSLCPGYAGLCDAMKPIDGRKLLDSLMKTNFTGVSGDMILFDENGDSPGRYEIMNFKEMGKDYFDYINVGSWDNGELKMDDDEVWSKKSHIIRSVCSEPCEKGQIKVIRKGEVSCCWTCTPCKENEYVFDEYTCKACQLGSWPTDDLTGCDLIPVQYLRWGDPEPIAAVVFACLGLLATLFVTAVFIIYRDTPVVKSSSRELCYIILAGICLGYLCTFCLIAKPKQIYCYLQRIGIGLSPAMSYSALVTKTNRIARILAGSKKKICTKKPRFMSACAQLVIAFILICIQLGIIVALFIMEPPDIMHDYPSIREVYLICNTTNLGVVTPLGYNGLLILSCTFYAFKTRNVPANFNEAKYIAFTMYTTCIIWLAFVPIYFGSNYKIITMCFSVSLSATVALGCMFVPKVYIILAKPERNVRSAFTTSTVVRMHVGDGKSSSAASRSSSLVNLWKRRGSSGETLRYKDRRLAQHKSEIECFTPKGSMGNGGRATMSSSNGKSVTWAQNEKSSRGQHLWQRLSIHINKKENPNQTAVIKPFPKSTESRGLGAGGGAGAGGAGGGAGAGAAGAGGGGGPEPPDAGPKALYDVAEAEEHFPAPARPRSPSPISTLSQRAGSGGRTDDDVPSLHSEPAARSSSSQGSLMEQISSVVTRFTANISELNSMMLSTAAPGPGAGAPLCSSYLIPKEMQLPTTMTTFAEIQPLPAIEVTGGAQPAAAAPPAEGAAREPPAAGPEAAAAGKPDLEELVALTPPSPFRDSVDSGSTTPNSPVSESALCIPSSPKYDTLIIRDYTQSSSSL
Description: I. Method the Determination of the Inhibition of the [^3H]-MPEP Binding in the mGluR5 Receptor Binding Assay
Pig brain homogenate is prepared by homogenization (Polytron PT 3000, Kinematica AG, 10,000 revolutions per minute 90 seconds) of pig brain halves without medulla, cerebellum and pons in a buffer solution having a pH of 8.0 (30 mM of hepes, Sigma, order no. H3375+1 tablet of Complete to 100 ml, Roche Diagnostics, order no. 1836145) in a ratio of 1:20 (brain weight/volume) and differential centrifugation at 900×g and 40,000×g. In each case 450 μg of protein from brain homogenate are incubated with 5 nM [^3H]-MPEP (Tocris, order no. R1212) (MPEP=2-methyl-6-(3-methoxyphenyl)ethynylpyridine) and the compounds to be investigated (10 μM in the test) in a buffer solution (as above) in 250 μl incubation batches in 96-well microtiter plates at room temperature 60 min.
Thereafter, the batches are filtered with the aid of a Brandel cell harvester (Brandel, Robotic 9600 model) onto Unifilter plates with glass fiber filter mats (Perkin Elmer, order no. 6005177) and then rinsed with buffer solution (as above) 3 times with 250 μl per sample each time. The filter plates are then dried 60 min at 55° C. 30 μl Ultima Gold™ scintillator (Packard BioScience, order no. 6013159) are subsequently added per well and, after 3 hours, the samples are measured on a β-counter (Mikrobeta, Perkin Elmer). The non-specific binding is determined by addition of 10 μM of MPEP (Tocris, order no. 1212).

mGluR5 receptor [2] = biological target: T2, mGluR5 receptor (Rattus norvegicus, UniProt P31424); assay: Ca2+ influx in the mGluR5 receptor assay (rat cortical neurons, FlexStation); assay type: cell-based; conditions: Table I; 10 μM DHPG
T2 construct: Cortical neurons are prepared from postnatal rats (P2-6) under sterile conditions; endogenous in cells; host or cells: primary cortical neurons from postnatal rats (P2-6)
T2 sequence (P31424 21-1203): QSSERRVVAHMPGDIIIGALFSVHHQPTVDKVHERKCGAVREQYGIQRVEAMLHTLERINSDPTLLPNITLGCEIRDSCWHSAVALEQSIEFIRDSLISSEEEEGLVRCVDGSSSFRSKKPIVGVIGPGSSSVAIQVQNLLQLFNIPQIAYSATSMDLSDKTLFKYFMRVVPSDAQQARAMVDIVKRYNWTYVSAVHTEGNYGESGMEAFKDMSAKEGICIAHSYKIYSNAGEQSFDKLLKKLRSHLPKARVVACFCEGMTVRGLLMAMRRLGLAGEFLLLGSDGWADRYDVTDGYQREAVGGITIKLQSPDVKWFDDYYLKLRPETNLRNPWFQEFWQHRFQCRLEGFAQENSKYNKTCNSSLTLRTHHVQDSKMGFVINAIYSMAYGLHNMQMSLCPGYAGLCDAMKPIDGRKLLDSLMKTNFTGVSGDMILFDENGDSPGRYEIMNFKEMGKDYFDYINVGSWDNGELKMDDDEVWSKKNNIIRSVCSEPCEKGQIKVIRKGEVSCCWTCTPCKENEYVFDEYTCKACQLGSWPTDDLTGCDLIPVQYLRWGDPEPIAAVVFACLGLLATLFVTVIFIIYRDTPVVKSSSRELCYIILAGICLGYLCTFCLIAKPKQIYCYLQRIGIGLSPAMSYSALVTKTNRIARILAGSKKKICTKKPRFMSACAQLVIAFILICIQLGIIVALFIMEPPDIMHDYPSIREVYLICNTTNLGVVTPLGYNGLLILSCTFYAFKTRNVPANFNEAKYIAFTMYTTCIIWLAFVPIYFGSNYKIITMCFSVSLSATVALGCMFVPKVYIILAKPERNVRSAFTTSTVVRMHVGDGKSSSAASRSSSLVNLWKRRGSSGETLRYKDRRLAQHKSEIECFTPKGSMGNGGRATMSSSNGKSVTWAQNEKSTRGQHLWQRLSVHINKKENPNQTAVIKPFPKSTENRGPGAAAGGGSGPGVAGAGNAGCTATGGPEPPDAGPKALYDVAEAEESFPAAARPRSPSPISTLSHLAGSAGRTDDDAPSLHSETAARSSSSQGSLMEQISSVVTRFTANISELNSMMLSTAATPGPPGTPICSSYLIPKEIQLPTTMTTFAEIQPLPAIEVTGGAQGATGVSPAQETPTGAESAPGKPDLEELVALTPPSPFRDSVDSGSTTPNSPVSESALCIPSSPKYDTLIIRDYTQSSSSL
Description: II. Method Determination of the Ca^2+ Influx in the mGluR5 Receptor Assay
An agonistic and/or antagonistic action of substances can be determined with the following assay on the mGluR5 receptor of the rat species. According to this assay, the intracellular release of Ca^2+ after activation of the mGluR5 receptor is quantified with the aid of a Ca^2+-sensitive dyestuff (Fluo-4 type, Molecular Probes Europe BV, Leiden, Holland) in a FlexStation (Molecular Devices, Sunnyvale, USA).
Preparation of Cortical Neurons: […]
For the functional investigation, the cells are loaded with 2 μM of Fluo-4 and 0.01 vol. % Pluronic F127 (Molecular Probes Europe BV, Leiden, Holland) in HBSS buffer solution (Hank's buffer saline solution, Gibco Invitrogen GmbH, Karlsruhe, Germany) 30 min at 37° C. […] The Ca^2+-dependent fluorescence is measured before and after the addition of substances (λex=485 nm, λem=525 nm). Quantification is effected by measurement of the highest fluorescence intensity over time. […] After incubation 3 minutes, 10 μM of DHPG ((S)-3,5-dihydroxyphenylglycine, Tocris Biotrend Chemikalien GmbH, Cologne, Germany) are applied and the influx of Ca^2+ is determined simultaneously. mGluR5 antagonists led to a suppression of the Ca^2+ influx. […]

| pIC50 (mGluR5 receptor [1]; Table II, unit inferred) | mGluR5-receptor (% inhibition 10 μM) in pigs (mGluR5 receptor [1]) | Compound | also measured |
| --- | --- | --- | --- |
| 6.82 | – | O=C(C#Cc1ccccc1)N1CCN(c2nccs2)CC1 [Example AAA56, 4-(Thiazol-2-yl)-1-(3-phenylpropiolyl)piperazine hydrochloride] | Reduction of nociceptive behavior of rats compared with control rats [%] (rats; 46.4 mg/kg i.p.): 85% |
| 7.89 | – | Cc1cccc(C#CC(=O)N2CCN(c3nccs3)CC2C)c1 (stereo not drawn) [Example AAA68, 2-Methyl-4-(thiazol-2-yl)-1-(3-(3-tolyl)propiolyl)piperazine] | Reduction of nociceptive behavior of rats compared with control rats [%] (rats; 46.4 mg/kg p.o.): 66% |
| – | – | O=C(C#Cc1ccccc1)N1CCN(c2nccs2)CC1 [Example 1, 1-(3-phenylpropiolyl)-4-(thiazol-2-yl)piperazine] | pIC50 (mGluR5 receptor [1]; Table I): 7.00; pIC50 (mGluR5 receptor [2]): 6.72 |
| – | 88% | O=C(C#Cc1cccc(Cl)c1)N1CCN(c2nccs2)CC1 [Example AAA24, 4-(Thiazol-2-yl)-1-(3-(3-chlorophenyl)propiolyl)piperazine] | Reduction of nociceptive behavior of rats compared with control rats [%] (rats; 46.4 mg/kg i.p.): 43% |
| – | 97% | Cc1cccc(C#CC(=O)N2CCN(c3nccs3)CC2)c1.Cl [Example AAA54, 4-(Thiazol-2-yl)-1-(3-(3-tolyl)propiolyl)piperazine hydrochloride] | Reduction of nociceptive behavior of rats compared with control rats [%] (rats; 10.0 mg/kg i.v.): 72% |
| – | 91% | Cc1nsc(N2CCN(C(=O)C#Cc3ccccc3)CC2)n1 [Example AAA00104, 4-(3-Methyl-1,2,4-thiadiazol-5-yl)-1-(3-phenylpropiolyl)piperazine] | – |
| – | 97% | C[C@@H]1CN(c2nccs2)C[C@H](C)N1C(=O)C#Cc1ccccc1 [Example AAA75, cis-2,6-Dimethyl-4-(thiazol-2-yl)-1-(3-phenylpropiolyl)piperazine] | – |
| – | 37% | O=C(C#Cc1ccccc1)N1CCN(c2nc(-c3ccccc3)ns2)CC1 [Example AAA82, 4-(3-Phenyl-1,2,4-thiadiazol-5-yl)-1-(3-phenylpropiolyl)piperazine] | – |
| – | 30% | CS(=O)(=O)c1nsc(N2CCN(C(=O)C#Cc3ccccc3)CC2)n1 [Example AAA00101, 4-(3-Methansulfonyl-1,2,4-thiadiazol-5-yl)-1-(3-phenylpropiolyl)piperazine] | – |
| 6.62 | – | O=C(C#Cc1cccc(C(F)(F)F)c1)N1CCN(c2nccs2)CC1 [Example AAA58, 4-(Thiazol-2-yl)-1-(3-(3-trifluoromethylphenyl)propiolyl)piperazine hydrochloride] | – |
| – | 30% | CC(=O)Nc1cccc(C#CC(=O)N2CCN(c3nccs3)CC2)c1 [Example AAA44, 4-(Thiazol-2-yl)-1-(3-(3-acetaminophenyl)propiolyl)piperazine] | – |
| – | 87% | COc1cccc(C#CC(=O)N2CCN(c3nccs3)CC2)c1 [Example AAA13, 4-(Thiazol-2-yl)-1-(3-(3-methoxyphenyl)propiolyl)piperazine] | – |
| – | 65% | Nc1ccc(C#CC(=O)N2CCN(c3nccs3)CC2)cc1 [Example AAA8, 4-(Thiazol-2-yl)-1-(3-(4-aminophenyl)propiolyl)piperazine] | – |
| 5.50 | – | O=C(C#Cc1ccoc1)N1CCN(c2nccs2)CC1 [Example AAA74, 4-(Thiazol-2-yl)-1-(3-(3-furyl)propiolyl)piperazine] | – |
| – | 86% | Cc1nc(N2CCN(C(=O)C#Cc3ccccc3)CC2)sc1C [Example AAA89, 4-(4,5-Dimethylthiazol-2-yl)-1-(3-phenylpropiolyl)piperazine] | – |
| 5.73 | – | CCCCCC#CC(=O)N1CCN(c2nccs2)CC1 [Example AAA60, 4-(Thiazol-2-yl)-1-(3-pentylpropiolyl)piperazine] | – |
| 7.21 | – | O=C(C#Cc1cccc(C(F)F)c1)N1CCN(c2nccs2)CC1 [Example AAA00122, 4-(Thiazol-2-yl)-1-(3-(3-difluoromethylphenyl)propiolyl)piperazine] | – |
| – | 86% | O=C(C#Cc1cccc(F)c1)N1CCN(c2nccs2)CC1 [Example AAA22, 4-(Thiazol-2-yl)-1-(3-(3-fluorophenyl)propiolyl)piperazine] | – |
| – | 76% | O=C(C#Cc1ccc(F)cc1)N1CCN(c2nccs2)CC1 [Example AAA61, 4-(Thiazol-2-yl)-1-(3-(4-fluorophenyl)propiolyl)piperazine] | – |
